According to publication PMC12389534, “Unlocking Therapeutic Potential of Novel Thieno-Oxazepine Hybrids as Multi-Target Inhibitors of AChE/BChE and Evaluation Against Alzheimer’s Disease: In Vivo, In Vitro, Histopathological, and Docking Studies” (Pharmaceuticals, 2025):
Entries after “also recorded” stand apart in the source; their conditions may differ.

Tests used:
[1] = system: brain tissue (CC, ST, FD, SN neurons); assay: Histopathological examination of brain tissue; format: in vivo, rat; details: brain sections, AlCl3-induced AD rats; for histopathological finding in CC, ST, FD and SN (NP = nuclear pyknosis): H&E
Procedure: (§1) The brain tissues of the rats were removed and rigorously washed in isotonic saline 24 h after they were euthanized following the last behavioral test. For histological investigation, four brains per group were preserved for the whole night in 10% neutral buffered formalin. The remaining six brains were split into two sections each. In order to create a 10% homogenate (w/v), the first component was instantaneously homogenized using an ice-cold solution that included 300 mM sucrose and 50 mM Tris-HCl (pH 7.4). The homogenate was centrifuged at 1800× g for 10 min at 4 °C for biochemical tests, and the supernatant was thereafter kept at −20 °C. The second portion was set aside for use in RT-PCR analysis at −80 °C [94].
Brain tissue samples were stationed in 10% formalin for 24 h, washed with water, and then serially diluted with alcohol to induce dehydration. After being submerged in paraffin, the specimens were cut into segments that were 4 µm thick using a microtome.

Wnt3a = assay: Brain Wnt3a level; format: in vivo, rat; details: AlCl3-induced AD rats; for Wnt3a (ng/g Tissue): mean ± SE, n = 6
Procedure: as §1
(§2) See Supplementary Information.

[2] = system: AlCl3-induced AD rat model; assay: Morris water maze (MWM) test in AlCl3-induced AD rats; format: in vivo; details: for Learning (s): escape latency; for Learning (s) / Memory (s): mean ± SE, n = 6; for Memory (s): time spent in target quadrant
Procedure: (§3) All procedures were conducted conforming to the applicable National Institutes of Health standards and regulations for the Care and Use of Laboratory Animals. In this experiment, adult male Dawley rats in excellent condition weighing between 300 and 320 g were used. The animals were acquired from the Nile Company for Pharmaceuticals and Chemical Industries (Cairo, Egypt). They were placed in a controlled laboratory setting with unrestricted access to water, a temperature range of 24 to 26 °C, and 12 h a light–dark cycle. Three rats per cage were housed in polycarbonate cages that were individually packed with paper and encased with stainless steel wire.
Spatial learning and memory were inspected using the MWM test. Tap water was poured into a 150 cm diameter by 60 cm high circular water tank until it reached a depth of 30 cm (25 ± 2 °C). To make the water […], non-toxic white dye was applied. The east, west, north, and south quadrants of the pool were essentially separated into four equal sections. At a specific spot in the middle of one quadrant, an escape platform with a diameter of 10 cm was submerged 2 cm below the water’s surface. The platform stood in the exact same quadrant throughout the testing. The rats’ swimming route was recorded by a video camera situated above the pool. From a designated spot in each quadrant, each rat was submerged in the water with its back turned to the pool wall, and it was then left to swim to the platform. The rats received training sessions every day for three days in a row, with four trials conducted in each session. Before the next trial began, the animals were kept a maximum of 60 s to explore the hidden platform. After that, they were permitted to relax on it for 20 s. The rat was positioned gently on the platform and allowed 20 s to rest if it took longer than 60 s to locate it. The time taken to find the platform, or the escape latency, was documented. In order to do a probing test on the fourth day, the platform was detached away, and the rats were given 60 s to swim liberally. The time spent in the assigned quadrant was counted.

BDNF = assay: Brain BDNF level (ELISA); format: in vivo, rat; details: AlCl3-induced AD rats; for BDNF (ng/mL): brain tissue, mean ± SE, n = 6
Procedure: as §1, §2

BAX = BAX gene expression (RT-qPCR); format: in vivo, rat; details: AlCl3-induced AD rats; for BAX: gene expression, mean ± SE, n = 6
Procedure: as §1, §2

NLRP3 = NLRP3 mRNA expression (RT-qPCR); format: in vivo, rat; parameters: reduction of NLRP3 mRNA expression: concentration or dose not given beside the values; details: AlCl3-induced AD rats; for NLRP3: mRNA expression level, mean ± SE, n = 6
Procedure: as §1, §2

β-catenin = assay: Brain β-catenin level; format: in vivo, rat; details: AlCl3-induced AD rats; for β-Catenin (ng/L): mean ± SE, n = 6
Procedure: as §1, §2

BAX/Bcl-2 = BAX/Bcl-2 ratio of gene expression; format: in vivo, rat; details: AlCl3-induced AD rats
Procedure: as §1, §2

MDA = assay: Brain MDA content (thiobarbituric acid method); format: in vivo, rat; parameters: reduction in MDA brain content: concentration or dose not given beside the values; details: AlCl3-induced AD rats; for MDA (nmol/g Tissue): brain tissue, mean ± SE, n = 6
IL-1β = assay: Brain IL-1β level (ELISA); format: in vivo, rat; parameters: reduction in IL-1β levels: concentration or dose not given beside the values; details: AlCl3-induced AD rats; for IL-β (pg/g Tissue): mean ± SE, n = 6
Procedure: as §1, with “[94]. […]” for “[94].”

[3] = system: AlCl3-induced AD rat model; assay: Y-maze SAP test in AlCl3-induced AD rats; format: in vivo; details: for SAP%: mean ± SE, n = 6
Procedure: as §3
One kind of short-term memory that SAP can represent is spatial working memory. Three arms, designated A, B, or C, were employed in a black hardwood Y-maze with a symmetrical triangular core space. Rats were briefly positioned at the edge of one arm and given 8 min to freely navigate around the maze. When the rat’s rear paws were fully inside the arm, the entries were counted. The following formula was used to determine SAP based on the total number of arm entries and alternations: SAP (%) = [number of alternations/(total arm entries − 2)] × 100 [94].

AChE [4] = format: in vivo; parameters: reduction in AChE levels: concentration or dose not given beside the values; details: AlCl3-induced AD rats; for AChE (ng/g Tissue): brain tissue, mean ± SE, n = 6; for reduction in AChE levels: brain
AChE [5] = molecular target: T1, AChE (Homo sapiens, UniProt P22303); assay: biochemical; details: colorimetric kit, 412 nm
T1 construct: purchased BioVision K197-100
Procedure: All newly created compounds were subjected to an AChE enzyme inhibitory screening. This was performed with the Colorimetric AChE Inhibitor Screening Kit (BioVision Catalog # K197-100). The 96-well assay kit provides a rapid, simple, and reliable way to screen for AChE inhibitors in large quantities. […] A completely transparent 96-well plate with a flat bottom was loaded with 10 µL of test inhibitors that were diluted (20×). […] A measure of 10 μL of diluted AChE was applied to each well that contained compounds, inhibitor control, and solvent control. […] Measures of 25 μL of AChE assay buffer, 5 μL of probe mix, and 10 μL of diluted AChE substrate were mixed to create the reaction mix. The reaction mix was mixed with the compound, enzyme control, and inhibitor control. […] The IC50 was calculated using nonlinear regression analysis using the response–concentration (log) curve.

T1 sequence (P22303 32-614): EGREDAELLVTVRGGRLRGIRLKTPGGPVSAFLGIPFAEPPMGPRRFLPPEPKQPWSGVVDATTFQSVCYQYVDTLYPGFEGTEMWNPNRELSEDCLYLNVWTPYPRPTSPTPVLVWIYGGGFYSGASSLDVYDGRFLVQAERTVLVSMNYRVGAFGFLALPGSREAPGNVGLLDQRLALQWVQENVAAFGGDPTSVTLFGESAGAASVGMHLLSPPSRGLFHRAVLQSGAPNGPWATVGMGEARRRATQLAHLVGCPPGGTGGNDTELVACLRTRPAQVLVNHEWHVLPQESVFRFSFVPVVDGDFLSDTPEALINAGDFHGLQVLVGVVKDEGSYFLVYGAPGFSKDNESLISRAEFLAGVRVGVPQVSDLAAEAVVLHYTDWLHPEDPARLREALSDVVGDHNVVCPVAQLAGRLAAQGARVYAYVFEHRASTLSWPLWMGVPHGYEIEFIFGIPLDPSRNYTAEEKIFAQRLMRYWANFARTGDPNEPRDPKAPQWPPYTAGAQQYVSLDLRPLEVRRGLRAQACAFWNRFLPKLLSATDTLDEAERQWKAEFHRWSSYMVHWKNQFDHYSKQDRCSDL

| SMILES | histopathological finding in CC, ST, FD and SN (NP = nuclear pyknosis) [1] | elevation of Wnt3a levels (Wnt3a) | Wnt3a (ng/g Tissue) (Wnt3a) | reduction in escape latency [2] | Learning (s) [2] | Memory (s) [2] | BDNF (ng/mL) (BDNF) | BAX (BAX) | NLRP3 (NLRP3) | elevation of β-catenin levels (β-catenin) | β-Catenin (ng/L) (β-catenin) | BAX/Bcl-2 Ratio (BAX/Bcl-2) | MDA (nmol/g Tissue) (MDA) | reduction in IL-1β levels (IL-1β) | IL-β (pg/g Tissue) (IL-1β) | increase in SAP% [3] | SAP% [3] | AChE (ng/g Tissue) (AChE [4]) | reduction in AChE levels (AChE [4]) | IC50 (AChE [5]) | also measured |
| --- | --- | --- | --- | --- | --- | --- | --- | --- | --- | --- | --- | --- | --- | --- | --- | --- | --- | --- | --- | --- | --- |
| CCOC(=O)c1c(O)sc2c1CCCCC2 [Compound 2, Ethyl 2-hydroxy-5,6,7,8-tetrahydro-4H-cyclohepta[b]thiophene-3-carboxylate] | moderate NP in CC, FD, and SN, in addition to normal histology in ST; also recorded: significant NP in the CC, FD, and SN, whereas the striatal neurons’ histological structures remained normal | 2 fold | 0.25 ± 0.01 ^abc ng/g Tissue | 32.2% | 33.33 ± 0.8 ^abc s | 24.17 ± 1.22 ^abc s | 64.95 ± 0.01 ^abc ng/mL | 8.13 ± 0.070 ^abc | 8.29 ± 0.09 ^abc | 2.7 fold | 4.262 ± 0.12 ^abc ng/L | 30.11 | 92.07 ± 0.04 ^abc nmol/g Tissue | 20.6% | 93.93 ± 1.26 ^abc pg/g Tissue | 14.6% | 62.33 ± 1.05 ^abc % | 51.41 ± 0.13 ^abc ng/g Tissue | 23.6% | 1.1 ± 0.04 µM | suppression of BAX gene expression (BAX): 16% |
| O=C1CN(c2ccc(Cl)cc2)C(=O)c2c(sc3c2CCCCC3)O1 [Compound 12, 4-(4-Chlorophenyl)-3,4,7,8,9,10-hexahydro-6H-cyclohepta[4,5]thieno[3,2-f][1,4]oxazepine-2,5-dione] | normal histology in CC and FD, as well as mild NP in ST and SN | 6.3 fold | 0.76 ± 0.01 ^abc ng/g Tissue |  | 23.5 ± 1.23 ^abc s | 37.17 ± 1.52 ^abc s | 83.62 ± 0.06 ^abc ng/mL | 4.85 ± 0.110 ^abc | 3.21 ± 0.12 ^abc | 6.3 fold | 9.91 ± 0.15 ^abc ng/L | 5.91 | 72.02 ± 0.05 ^abc nmol/g Tissue | 53.9% | 54.51 ± 1.3 ^abc pg/g Tissue |  | 76.5 ± 1.52 ^abc % | 35.66 ± 0.19 ^abc ng/g Tissue | 47% | 10.9 ± 0.38 µM | histology of CC neurons and FD [1]: normal histological structures; pyknosis in ST and SN neurons [1]: minimal pyknosis; increase in quadrant residence time [2]: 3.7 times; elevation of BDNF levels (BDNF): 2 fold; reduction of NLRP3 mRNA expression (NLRP3): 69.9%; reduction in MDA brain content (MDA): 38% |
| O=C1CN(c2ccc(O)cc2)C(=O)c2c(sc3c2CCCCC3)O1 [Compound 15, 4-(4-Hydroxyphenyl)-3,4,7,8,9,10-hexahydro-6H-cyclohepta[4,5]thieno[3,2-f][1,4]oxa-zepine-2,5-dione] | normal histology of CC and FD, and moderate NP in ST and SN | 7.3 fold | 0.88 ± 0.01 ^abc ng/g Tissue | 61% | 19.17 ± 1.01 ^abc s | 42.50 ± 1.06 ^abc s | 94.48 ± 0.05 ^abc ng/mL | 4.47 ± 0.040 ^abc | 3.36 ± 0.12 ^abc | 8.8 fold | 13.86 ± 0.11 ^abc ng/L | 5.20 | 63.68 ± 0.12 ^abc nmol/g Tissue | 61.1% | 45.66 ± 1.03 ^abc pg/g Tissue | ~34.8% | 82.5 ± 0.89 ^abc % | 25.73 ± 0.37 ^abc ng/g Tissue | 61.8% | 1.59 ± 0.06 µM | histology of CC neurons and FD [1]: normal histological structures; pyknosis in ST and SN neurons [1]: moderate pyknosis; increase in quadrant residence time [2]: ~4.3 times; elevation of BDNF levels (BDNF): 2.2 fold; reduction of NLRP3 mRNA expression (NLRP3): 68.5%; reduction in MDA brain content (MDA): 45.2% |
| N#Cc1ccc(N2CC(=O)Oc3sc4c(c3C2=O)CCCCC4)cc1 [Compound 13, 4-(2,5-Dioxo-2,3,7,8,9,10-hexahydro-6H-cyclohepta[4,5]thieno[3,2-f][1,4]oxazepin-4(5H)-yl)benzonitrile] | normal histology of CC and FD, and moderate NP in ST and SN | 7 fold | 0.84 ± 0.01 ^abc ng/g Tissue | 71.2% | 14.17 ± 0.95 ^abc s | 40.50 ± 2.62 ^abc s | 104.9 ± 0.07 ^abc ng/mL | 5.80 ± 0.120 ^abc | 2.86 ± 0.11 ^abc | 7.7 fold | 11.67 ± 0.13 ^abc ng/L | 7.34 | 52.58 ± 0.08 ^abc nmol/g Tissue | 61.3% | 45.79 ± 1.34 ^abc pg/g Tissue | ~35% | 82.67 ± 1.28 ^abc % | 24.35 ± 0.8 ^abc ng/g Tissue | 63.8% | 5.04 ± 0.17 µM | histology of CC neurons and FD [1]: normal histological structures; pyknosis in ST and SN neurons [1]: moderate pyknosis; increase in quadrant residence time [2]: about 4.1 times; elevation of BDNF levels (BDNF): 2.4 fold; reduction of NLRP3 mRNA expression (NLRP3): 73.2%; reduction in MDA brain content (MDA): 54.7% |
